Experimental findings from patent publication US6150385A, “1,3,4-thiadiazoles useful for the treatment of CMV infections” (Pharmacia & Upjohn Company, priority 1999, dated 2000) are described below.

The structures appear in SMILES notation.

This test deals with T1, HCMV polymerase (Human cytomegalovirus, UniProt P08546).
T1 construct: made in house; host or cells: SF-9 insect cells infected with recombinant baculovirus
T1 sequence (P08546 whole entry): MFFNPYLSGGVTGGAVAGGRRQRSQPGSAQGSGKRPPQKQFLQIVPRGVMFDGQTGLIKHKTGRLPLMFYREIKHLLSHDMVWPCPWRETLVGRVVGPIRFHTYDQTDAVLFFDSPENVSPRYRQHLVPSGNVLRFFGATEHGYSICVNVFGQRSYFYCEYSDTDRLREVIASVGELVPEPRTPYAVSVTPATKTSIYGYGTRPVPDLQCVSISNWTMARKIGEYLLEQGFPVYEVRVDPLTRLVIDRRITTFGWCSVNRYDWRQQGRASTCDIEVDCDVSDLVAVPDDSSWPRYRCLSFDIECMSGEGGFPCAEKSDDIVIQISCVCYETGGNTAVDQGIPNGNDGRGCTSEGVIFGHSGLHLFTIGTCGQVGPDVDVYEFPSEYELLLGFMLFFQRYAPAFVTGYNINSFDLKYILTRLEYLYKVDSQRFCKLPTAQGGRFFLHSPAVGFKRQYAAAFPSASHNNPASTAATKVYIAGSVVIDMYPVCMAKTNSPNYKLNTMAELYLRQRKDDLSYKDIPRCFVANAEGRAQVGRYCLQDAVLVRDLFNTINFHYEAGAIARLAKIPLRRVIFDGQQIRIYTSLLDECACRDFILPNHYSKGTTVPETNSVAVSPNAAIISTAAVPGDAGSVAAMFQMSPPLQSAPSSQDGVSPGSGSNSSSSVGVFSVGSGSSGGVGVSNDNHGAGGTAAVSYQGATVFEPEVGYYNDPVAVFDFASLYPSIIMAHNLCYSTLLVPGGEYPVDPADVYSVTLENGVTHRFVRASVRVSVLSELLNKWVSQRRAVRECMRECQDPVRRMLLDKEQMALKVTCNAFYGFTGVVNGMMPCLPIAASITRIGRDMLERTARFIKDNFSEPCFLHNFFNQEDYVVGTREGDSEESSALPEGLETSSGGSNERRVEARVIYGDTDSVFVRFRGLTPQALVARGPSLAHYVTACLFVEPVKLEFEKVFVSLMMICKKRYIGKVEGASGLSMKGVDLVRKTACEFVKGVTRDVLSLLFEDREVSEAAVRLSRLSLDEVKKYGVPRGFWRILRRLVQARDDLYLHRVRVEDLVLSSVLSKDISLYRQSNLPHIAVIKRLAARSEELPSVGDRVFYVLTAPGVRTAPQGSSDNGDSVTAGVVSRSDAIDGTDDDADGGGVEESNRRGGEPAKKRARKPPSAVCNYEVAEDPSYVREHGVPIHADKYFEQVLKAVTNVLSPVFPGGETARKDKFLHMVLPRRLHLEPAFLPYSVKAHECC
The test is described as follows: HCMV polymerase assay (scintillation proximity assay). The class given is biochemical. The settings on record: percentage of inhibition at 25 μM concentration in CMV polymerase assay. The gist of the method: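 Values are percent inhibition at 25 μM, measured by scintillation proximity after capture of biotinylated poly(dA)-oligo(dT) (6 nM) extended with 90 nM 3H-dTTP. Recombinant SF-9-derived enzyme reacted 30 min at 25 or 37 °C in HEPES pH 7.5/KCl/MgCl2/BSA buffer, ±2 mM CHAPS, before EDTA termination.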
Usually inhibition stands for the percentage by which the read-out fell short of the control. Low values mean a response near the control, high ones a response far below the control. Regarding `Cc1ccc(C(=O)Nc2nnc(NCc3cccc4ccccc34)s2)cc1` [compound 457, 4-methyl-N-{5-[(1-naphthylmethyl)amino]-1,3,4-thiadiazol-2-yl}benzamide], the inhibition at 25 µM stood at 20.7%. Consider `CN1CCN(CCCNc2nnc(NC(=O)/C=C/c3ccccc3Cl)s2)CC1` [compound 422, (E)-3-(2-chlorophenyl)-N-(5-{[3-(4-methylpiperazino)propyl]amino}-1,3,4-thiadiazol-2-yl)-2-propenamide], for which testing at 25 µM gave an inhibition of 24%. With `CCCCCCCC/C=C/CCCCCCCC(=O)Nc1nnc(NCCSCC)s1` [compound 129, (E)-N-(5-{[2-(ethylsulfanyl)ethyl]amino}1,3,4-thiadiazol-2-yl)-9-octadecenamide] the figure was 58.3%; with `O=C(CCCCCl)Nc1nnc(NCCCCc2ccccc2)s1` [compound 382, 5-chloro-N-{5-[(4-phenylbutyl)amino]-1,3,4-thiadiazol-2-yl}pentanamide], 27.3%; with `CC(C)(C)OC(=O)CCNc1nnc(NC(=O)c2ccc(Cl)c(Cl)c2)s1` [compound 420, tert-butyl 3-({5-[(3,4-dichlorobenzoyl)amino]-1,3,4-thiadiazol-2-yl}amino)propanoate], 24.1%. For the molecule `O=C(CCCCCl)Nc1nnc(NCc2ccc(F)cc2)s1` [compound 321, 5-chloro-N-{5-[(4-fluorobenzyl)amino]-1,3,4-thiadiazol-2-yl}pentanamide], the inhibition at 25 µM is 33.2%. The result for `O=C(/C=C/c1ccccc1Cl)Nc1nnc(NCc2ccc(F)cc2)s1` [compound 67, (E)-3-(2-chlorophenyl)-N-{5-[(4-fluorobenzyl)amino]-1,3,4-thiadiazol-2-yl}-2-propenamide] reads 71.7%; that for `CCCCCCCC/C=C/CCCCCCCC(=O)Nc1nnc(NCCCNC2CCCCC2)s1` [compound 1, (E)-N-(5-{[3-(cyclohexylamino)propyl]amino}-1,3,4-thiadiazol-2-yl)-9-octadecenamide], 100%.

Consider `O=C(Nc1nnc(NCCc2c[nH]c3ccccc23)s1)c1ccc(C(F)(F)F)cc1` [compound 284, N-(5-{[2-(1H-indol-3-yl)ethyl]amino}-1,3,4-thiadiazol-2-yl)-4-(trifluoromethyl)benzamide], for which the inhibition at 25 µM was found to be 36.7%.

In turn, `CC1(C)C2CC[C@@H](CNc3nnc(NC(=O)c4cc5ccccc5s4)s3)C1C2` (stereo partly drawn) [compound 403, N-[5-({[(2R)-6,6-dimethylbicyclo[3.1.1]hept-2-yl]methyl}amino)-1,3,4-thiadiazol-2-yl]-1-benzothiophene-2-carboxamide] returned an inhibition at 25 µM of 25.3%. With `O=C(Nc1nnc(NC2CCN(Cc3ccccc3)CC2)s1)c1ccc(Br)cc1` [compound 455, N-{5-[(1-benzyl-4-piperidinyl)amino]-1,3,4-thiadiazol-2-yl}-4-bromobenzamide] the figure was 20.8%; with `O=C(/C=C/c1ccccc1Cl)Nc1nnc(NCCNc2ccccc2)s1` [compound 294, (E)-N-{5-[(2-anilinoethyl)amino]-1,3,4-thiadiazol-2-yl}-3-(2-chlorophenyl)-2-propenamide], 35.4%; with `O=C(Nc1nnc(NCCSc2ccccc2)s1)c1ccc(I)cc1` [compound 198, 4-iodo-N-(5-{[2-(phenylsulfanyl)ethyl]amino}-1,3,4-thiadiazol-2-yl)benzamide], 46%. The result for `O=C(/C=C/c1ccccc1Cl)Nc1nnc(NCCCn2ccnc2)s1` [compound 221, (E)-3-(2-chlorophenyl)-N-(5-{[3-(1H-imidazol-1-yl)propyl]amino}-1,3,4-thiadiazol-2-yl)-2-propenamide] reads 43.5%; that for `CC(C)c1cc(C(C)C)c(C(=O)Nc2nnc(NCCc3c[nH]c4ccccc34)s2)c(C(C)C)c1` [compound 219, N-(5-{[2-(1H-indol-3-yl)ethyl]amino}-1,3,4-thiadiazol-2-yl)-2,4,6-triisopropylbenzamide], 43.6%; that for `O=C(/C=C/c1ccccc1Cl)Nc1nnc(NCCCN2CCCC2=O)s1` [compound 208, (E)-3-(2-chlorophenyl)-N-(5-{[3-(2-oxo-1-pyrrolidinyl)propyl]amino}-1,3,4-thiadiazol-2-yl)-2-propenamide], 44.7%. As for `CCCCCCCC/C=C/CCCCCCCC(=O)Nc1nnc(NCCSc2ccccc2)s1` [compound 58, (E)-N-(5-{[2-(phenylsulfanyl)ethyl]amino}-1,3,4-thiadiazol-2-yl)-9-octadecenamide], testing at 25 µM gave an inhibition of 75.8%. With `CCOc1ccc2ccccc2c1C(=O)Nc1nnc(NC[C@@H]2CCC3CC2C3(C)C)s1` (stereo partly drawn) [compound 261, N-[5-({[(2R)-6,6-dimethylbicyclo[3.1.1]hept-2-yl]methyl}amino)-1,3,4-thiadiazol-2-yl]-2-ethoxy-1-naphthamide] the figure was 39.5%.

`O=C(Nc1nnc(NCCSc2ccccc2)s1)c1ccc(Br)cc1` [compound 163, 4-bromo-N-(5-{[2-(phenylsulfanyl)ethyl]amino}-1,3,4-thiadiazol-2-yl)benzamide]: the inhibition at 25 µM is 51.5%. Molecule `Cc1ccc(C(=O)Nc2nnc(NCCCN3CCCC3=O)s2)cc1` [compound 395, 4-methyl-N-(5-{[3-(2-oxo-1-pyrrolidinyl)propyl]amino}-1,3,4-thiadiazol-2-yl)benzamide] registered an inhibition at 25 µM of 25.9%. The result for `NS(=O)(=O)c1ccc(CNc2nnc(NC(=O)c3ccc(Cl)c(Cl)c3)s2)cc1` [compound 311, N-(5-{[4-(aminosulfonyl)benzyl]amino}-1,3,4-thiadiazol-2-yl)-3,4-dichlorobenzamide] reads 33.9%; that for `CC(C)c1cc(C(C)C)c(C(=O)Nc2nnc(NCc3ccc(S(N)(=O)=O)cc3)s2)c(C(C)C)c1` [compound 35, N-(5-{[4-(aminosulfonyl)benzyl]amino}-1,3,4-thiadiazol-2-yl)-2,4,6-triisopropylbenzamide], 89.7%. The result for `COc1ccccc1C(=O)Nc1nnc(NCCc2c[nH]c3ccccc23)s1` [compound 303, N-(5-{[2-(1H-indol-3-yl)ethyl]amino}-1,3,4-thiadiazol-2-yl)-2-methoxybenzamide] reads 34.7%. The result for `COc1ccc(CNc2nnc(NC(=O)c3c(Cl)cccc3Cl)s2)cc1OC` [compound 280, 2,6-dichloro-N-{5-[(3,4-dimethoxybenzyl)amino]-1,3,4-thiadiazol-2-yl}benzamide] reads 37.3%; that for `O=C(Nc1nnc(NCC2CCCCC2)s1)c1ccc(Cl)c(Cl)c1` [compound 384, 3,4-dichloro-N-{5-[(cyclohexylmethyl)amino]-1,3,4-thiadiazol-2-yl}benzamide], 27.2%; that for `O=C(CCCCCl)Nc1nnc(NCC(c2ccccc2)c2ccccc2)s1` [compound 186, 5-chloro-N-{5-[(2,2-diphenylethyl)amino]-1,3,4-thiadiazol-2-yl}pentanamide], 47.4%.

As for `O=C(Nc1nnc(NCCCCc2ccccc2)s1)c1ccc(F)cc1F` [compound 197, 2,4-difluoro-N-{5-[(4-phenylbutyl)amino]-1,3,4-thiadiazol-2-yl}benzamide], at 25 µM the inhibition was 46.2%. The result for `COc1ccccc1C(=O)Nc1nnc(NCCC(c2ccccc2)c2ccccc2)s1` [compound 383, N-{5-[(3,3-diphenylpropyl)amino]-1,3,4-thiadiazol-2-yl}-2-methoxybenzamide] reads 27.3%. The result for `CCCCCCCCCCCNc1nnc(NC(=O)c2cccc([N+](=O)[O-])c2)s1` [compound 80, 3-nitro-N-[5-(undecylamino)-1,3,4-thiadiazol-2-yl]benzamide] reads 67.9%. With `CCCCCCCC/C=C/CCCCCCCC(=O)Nc1nnc(NCCC(c2ccccc2)c2ccccc2)s1` [compound 64, (E)-N-{5-[(3,3-diphenylpropyl)amino]-1,3,4-thiadiazol-2-yl}-9-octadecenamide] the figure was 73.6%.

Regarding `CCCCCCCCCCCNc1nnc(NC(=O)c2c(OCC)ccc3ccccc23)s1` [compound 145, 2-ethoxy-N-[5-(undecylamino)-1,3,4-thiadiazol-2-yl]-1-naphthamide], the inhibition at 25 µM turned out to be 54.9%. With `O=C(Nc1nnc(NCCNc2ccccc2)s1)c1ccc(I)cc1` [compound 339, N-{5-[(2-anilinoethyl)amino]-1,3,4-thiadiazol-2-yl}-4-iodobenzamide] the figure was 31.5%; with `N#Cc1ccc(C(=O)Nc2nnc(NCCCNC3CCCCC3)s2)cc1` [compound 127], 58.5%. The result for `COc1ccc(CNc2nnc(NC(=O)c3ccc(C#N)cc3)s2)cc1OC` [compound 244, 4-cyano-N-{5-[(3,4-dimethoxybenzyl)amino]-1,3,4-thiadiazol-2-yl}benzamide] reads 41%.

As to `O=C(Nc1nnc(NCc2ccc(F)cc2)s1)c1ccc2c(c1)C(=O)OC2=O` [compound 7, N-{5-[(4-fluorobenzyl)amino]-1,3,4-thiadiazol-2-yl}-1,3-dioxo-1,3-dihydro-2-benzofuran-5-carboxamide], the inhibition at 25 µM came to 99.8%.

`O=C(CCCCCl)Nc1nnc(NCC2CCCCC2)s1` [compound 315, 5-chloro-N-{5-[(cyclohexylmethyl)amino]-1,3,4-thiadiazol-2-yl}pentanamide] had an inhibition at 25 µM of 33.8%. For the molecule `O=C(Nc1nnc(NC2CCCCCC2)s1)c1ccc(I)cc1` [compound 288, N-[5-(cycloheptylamino)-1,3,4-thiadiazol-2-yl]-4-iodobenzamide], 25 µM produced 36.2% inhibition.

`O=C(/C=C/c1ccccc1)Nc1nnc(NC2CC2)s1` [compound 465, (E)-N-[5-(cyclopropylamino)-1,3,4-thiadiazol-2-yl]-3-phenyl-2-propenamide]: 25 µM produced 20.2% inhibition.
